Results reported in US20110081315A1, “NOVEL MACROCYCLIC INHIBITORS OF HEPATITIS C VIRUS REPLICATION” (INTERMUNE, INC., priority 2009, published 2011).
Like-named read-outs stand apart in the source and are kept apart here.

Tests used:
hepatitis C replicon = hepatitis C replicon EC50 assay; assay type: cell-based; details: Hepatitis C virus
In short: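 Read-outs are IC50 for inhibition of the NS3/NS4 complex and EC50 in an HCV replicon system. Biochemical runs use 23° C. and a 50 mM Tris-HCl (pH 7.5) buffer with 15% glycerol, 10 mM DTT, 0.6 mM LDAO and 25 μM NS4A peptide.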

NS3/NS4 complexes = NS3/NS4 complexes (Hepatitis C virus genotype 1a, UniProt P27958); assay: NS3/NS4 inhibition assay (IC50); assay type: biochemical; details: NS3/NS4 activity; 23° C., 25 μM NS4A peptide
In short: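 Enzyme IC50: NS3/NS4 complex, 23° C.; buffer Tris-HCl 50 mM pH 7.5 / glycerol 15% / DTT 10 mM / LDAO 0.6 mM / NS4A peptide 25 μM. Cellular: HCV replicon EC50.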

[1] = hepatitis C replicon, read-out: EC50

NS3/NS4 complexes, sequence (P27958 1027-1657, one chain of several): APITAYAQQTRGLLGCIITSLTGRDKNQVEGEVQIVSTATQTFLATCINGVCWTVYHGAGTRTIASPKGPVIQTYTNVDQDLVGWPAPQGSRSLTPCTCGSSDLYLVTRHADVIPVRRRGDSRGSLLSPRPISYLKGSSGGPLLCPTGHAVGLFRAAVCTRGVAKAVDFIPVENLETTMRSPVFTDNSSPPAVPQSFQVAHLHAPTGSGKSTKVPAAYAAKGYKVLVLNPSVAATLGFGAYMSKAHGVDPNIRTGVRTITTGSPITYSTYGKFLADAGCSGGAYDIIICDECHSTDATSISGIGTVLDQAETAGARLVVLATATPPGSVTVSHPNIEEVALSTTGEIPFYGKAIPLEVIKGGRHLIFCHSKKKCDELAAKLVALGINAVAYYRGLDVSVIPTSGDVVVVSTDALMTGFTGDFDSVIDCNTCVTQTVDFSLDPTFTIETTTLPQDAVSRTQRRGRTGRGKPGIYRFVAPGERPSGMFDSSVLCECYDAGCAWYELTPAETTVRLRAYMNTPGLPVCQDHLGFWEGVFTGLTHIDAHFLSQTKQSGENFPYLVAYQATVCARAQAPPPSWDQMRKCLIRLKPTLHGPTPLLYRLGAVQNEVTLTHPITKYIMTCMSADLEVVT

## CC(C)n1c(O[C@@H]2C[C@H]3C(=O)N[C@]4(C(=O)NS(=O)(=O)C5(C)CC5)C[C@H]4/C=C\CCCCC[C@H](Nc4ccccc4)C(=O)N3C2)nc2c(C(=O)O)cccc21 [Compound 267]
Hepatitis C replicon; [1]
  EC50: > 0.1 µM
NS3/NS4 complexes
  IC50: < 0.01 µM

## CC(C)n1c(O[C@@H]2C[C@H]3C(=O)N[C@]4(C(=O)NS(=O)(=O)C5(C)CC5)C[C@H]4/C=C\CCCCC[C@H](Nc4ccccc4)C(=O)N3C2)nc2c(C(N)=O)cccc21 [Compound 268]
Hepatitis C replicon; [1]
  EC50: 0.01 to 0.1 µM
NS3/NS4 complexes
  IC50: < 0.01 µM

## CNC(=O)c1cccc2c1nc(O[C@@H]1C[C@H]3C(=O)N[C@]4(C(=O)NS(=O)(=O)C5(C)CC5)C[C@H]4/C=C\CCCCC[C@H](Nc4ccccc4)C(=O)N3C1)n2C(C)C [Compound 269]
Hepatitis C replicon; [1]
  EC50: 0.01 to 0.1 µM
NS3/NS4 complexes
  IC50: < 0.01 µM

## CC(C)n1c(O[C@@H]2C[C@H]3C(=O)N[C@]4(C(=O)NS(=O)(=O)C5(C)CC5)C[C@H]4/C=C\CCCCC[C@H](Nc4ccccc4)C(=O)N3C2)nc2c(C(=O)N(C)C)cccc21 [Compound 270]
Hepatitis C replicon; [1]
  EC50: > 0.1 µM
NS3/NS4 complexes
  IC50: < 0.01 µM

## CCNC(=O)c1cccc2c1nc(O[C@@H]1C[C@H]3C(=O)N[C@]4(C(=O)NS(=O)(=O)C5(C)CC5)C[C@H]4/C=C\CCCCC[C@H](Nc4ccccc4)C(=O)N3C1)n2C(C)C [Compound 271]
Hepatitis C replicon; [1]
  EC50: 0.01 to 0.1 µM
NS3/NS4 complexes
  IC50: < 0.01 µM

## CC(C)NC(=O)c1cccc2c1nc(O[C@@H]1C[C@H]3C(=O)N[C@]4(C(=O)NS(=O)(=O)C5(C)CC5)C[C@H]4/C=C\CCCCC[C@H](Nc4ccccc4)C(=O)N3C1)n2C(C)C [Compound 272]
Hepatitis C replicon; [1]
  EC50: 0.01 to 0.1 µM
NS3/NS4 complexes
  IC50: < 0.01 µM

## CC(C)n1c(O[C@@H]2C[C@H]3C(=O)N[C@]4(C(=O)NS(=O)(=O)C5(C)CC5)C[C@H]4/C=C\CCCCC[C@H](Nc4ccccc4)C(=O)N3C2)nc2c(C(=O)Nc3ccccc3)cccc21 [Compound 273]
Hepatitis C replicon; [1]
  EC50: 0.01 to 0.1 µM
NS3/NS4 complexes
  IC50: < 0.01 µM

## CC(C)n1c(O[C@@H]2C[C@H]3C(=O)N[C@]4(C(=O)NS(=O)(=O)C5(C)CC5)C[C@H]4/C=C\CCCCC[C@H](Nc4ccccc4)C(=O)N3C2)nc2c(C(=O)NCc3ccccc3)cccc21 [Compound 274]
Hepatitis C replicon; [1]
  EC50: 0.01 to 0.1 µM
NS3/NS4 complexes
  IC50: < 0.01 µM

## CC(C)n1c(O[C@@H]2C[C@H]3C(=O)N[C@]4(C(=O)NS(=O)(=O)C5(C)CC5)C[C@H]4/C=C\CCCCC[C@H](Nc4ccccc4)C(=O)N3C2)nc2c(C(=O)NCCc3ccccc3)cccc21 [Compound 275]
Hepatitis C replicon; [1]
  EC50: 0.01 to 0.1 µM
NS3/NS4 complexes
  IC50: < 0.01 µM

## CC(C)n1c(O[C@@H]2C[C@H]3C(=O)N[C@]4(C(=O)NS(=O)(=O)N(C)C)C[C@H]4/C=C\CCCCC[C@H](NC(=O)OC(C)(C)C)C(=O)N3C2)nc2c(C(=O)O)cccc21 [Compound 276]
Hepatitis C replicon; [1]
  EC50: > 0.1 µM
NS3/NS4 complexes
  IC50: < 0.01 µM

## CC(C)n1c(O[C@@H]2C[C@H]3C(=O)N[C@]4(C(=O)NS(=O)(=O)N(C)C)C[C@H]4/C=C\CCCCC[C@H](NC(=O)OC(C)(C)C)C(=O)N3C2)nc2c(C(N)=O)cccc21 [Compound 277]
Hepatitis C replicon; [1]
  EC50: < 0.01 µM
NS3/NS4 complexes
  IC50: < 0.01 µM

## CNC(=O)c1cccc2c1nc(O[C@@H]1C[C@H]3C(=O)N[C@]4(C(=O)NS(=O)(=O)N(C)C)C[C@H]4/C=C\CCCCC[C@H](NC(=O)OC(C)(C)C)C(=O)N3C1)n2C(C)C [Compound 278]
Hepatitis C replicon; [1]
  EC50: 0.01 to 0.1 µM
NS3/NS4 complexes
  IC50: < 0.01 µM

## CC(C)n1c(O[C@@H]2C[C@H]3C(=O)N[C@]4(C(=O)NS(=O)(=O)N(C)C)C[C@H]4/C=C\CCCCC[C@H](NC(=O)OC(C)(C)C)C(=O)N3C2)nc2c(C(=O)N(C)C)cccc21 [Compound 279]
Hepatitis C replicon; [1]
  EC50: > 0.1 µM
NS3/NS4 complexes
  IC50: < 0.01 µM

## CCNC(=O)c1cccc2c1nc(O[C@@H]1C[C@H]3C(=O)N[C@]4(C(=O)NS(=O)(=O)N(C)C)C[C@H]4/C=C\CCCCC[C@H](NC(=O)OC(C)(C)C)C(=O)N3C1)n2C(C)C [Compound 280]
Hepatitis C replicon; [1]
  EC50: < 0.01 µM
NS3/NS4 complexes
  IC50: < 0.01 µM

## CC(C)NC(=O)c1cccc2c1nc(O[C@@H]1C[C@H]3C(=O)N[C@]4(C(=O)NS(=O)(=O)N(C)C)C[C@H]4/C=C\CCCCC[C@H](NC(=O)OC(C)(C)C)C(=O)N3C1)n2C(C)C [Compound 281]
Hepatitis C replicon; [1]
  EC50: < 0.01 µM
NS3/NS4 complexes
  IC50: < 0.01 µM

## CC(C)n1c(O[C@@H]2C[C@H]3C(=O)N[C@]4(C(=O)NS(=O)(=O)N(C)C)C[C@H]4/C=C\CCCCC[C@H](NC(=O)OC(C)(C)C)C(=O)N3C2)nc2c(C(=O)Nc3ccccc3)cccc21 [Compound 282]
Hepatitis C replicon
  EC50: 0.01 to 0.1 µM
NS3/NS4 complexes
  IC50: < 0.01 µM

## CC(C)n1c(O[C@@H]2C[C@H]3C(=O)N[C@]4(C(=O)NS(=O)(=O)N(C)C)C[C@H]4/C=C\CCCCC[C@H](NC(=O)OC(C)(C)C)C(=O)N3C2)nc2c(C(=O)NCc3ccccc3)cccc21 [Compound 283]
Hepatitis C replicon; [1]
  EC50: < 0.01 µM
NS3/NS4 complexes
  IC50: < 0.01 µM

## CC(C)n1c(O[C@@H]2C[C@H]3C(=O)N[C@]4(C(=O)NS(=O)(=O)N(C)C)C[C@H]4/C=C\CCCCC[C@H](NC(=O)OC(C)(C)C)C(=O)N3C2)nc2c(C(=O)NCCc3ccccc3)cccc21 [Compound 284]
Hepatitis C replicon
  EC50: < 0.01 µM
NS3/NS4 complexes
  IC50: < 0.01 µM

## COc1cccc2c1nc(O[C@@H]1C[C@H]3C(=O)N[C@]4(C(=O)NS(=O)(=O)C5(C)CC5)C[C@H]4/C=C\CCCCC[C@H](Nc4ccccc4)C(=O)N3C1)n2C(C)C [Compound 285]
Hepatitis C replicon; [1]
  EC50: < 0.01 µM
NS3/NS4 complexes
  IC50: < 0.01 µM

## COc1cccc2c1nc(O[C@@H]1C[C@H]3C(=O)N[C@]4(C(=O)NS(=O)(=O)N(C)C)C[C@H]4/C=C\CCCCC[C@H](NC(=O)OC(C)(C)C)C(=O)N3C1)n2C(C)C [Compound 286]
Hepatitis C replicon; [1]
  EC50: < 0.01 µM
NS3/NS4 complexes
  IC50: < 0.01 µM

## CC(C)n1c(O[C@@H]2C[C@H]3C(=O)N[C@]4(C(=O)NS(=O)(=O)C5(C)CC5)C[C@H]4/C=C\CCCCC[C@H](Nc4ccccc4)C(=O)N3C2)nc2c(NC(=O)Nc3ccccc3)cccc21 [Compound 287]
Hepatitis C replicon
  EC50: 0.01 to 0.1 µM
NS3/NS4 complexes
  IC50: < 0.01 µM

## CC(C)c1cccc2c1nc(O[C@@H]1C[C@H]3C(=O)N[C@]4(C(=O)NS(=O)(=O)N(C)C)C[C@H]4/C=C\CCCCC[C@H](NC(=O)OC(C)(C)C)C(=O)N3C1)n2C(C)C [Compound 288]
Hepatitis C replicon; [1]
  EC50: < 0.01 µM
NS3/NS4 complexes
  IC50: < 0.01 µM

## CC(C)c1ccc2c(c1)nc(O[C@@H]1C[C@H]3C(=O)N[C@]4(C(=O)NS(=O)(=O)N(C)C)C[C@H]4/C=C\CCCCC[C@H](NC(=O)OC(C)(C)C)C(=O)N3C1)n2C(C)C [Compound 289]
Hepatitis C replicon; [1]
  EC50: 0.01 to 0.1 µM
NS3/NS4 complexes
  IC50: < 0.01 µM

## CC(C)c1cccc2nc(O[C@@H]3C[C@H]4C(=O)N[C@]5(C(=O)NS(=O)(=O)N(C)C)C[C@H]5/C=C\CCCCC[C@H](NC(=O)OC(C)(C)C)C(=O)N4C3)n(C(C)C)c12 [Compound 290]
Hepatitis C replicon; [1]
  EC50: 0.01 to 0.1 µM
NS3/NS4 complexes
  IC50: < 0.01 µM

## CC(C)n1c(O[C@@H]2C[C@H]3C(=O)N[C@]4(C(=O)NS(=O)(=O)N(C)C)C[C@H]4/C=C\CCCCC[C@H](NC(=O)OC(C)(C)C)C(=O)N3C2)nc2c(C(F)(F)F)cccc21 [Compound 291]
Hepatitis C replicon; [1]
  EC50: < 0.01 µM
NS3/NS4 complexes
  IC50: < 0.01 µM

## CCc1csc(-c2cccc3c2nc(O[C@@H]2C[C@H]4C(=O)N[C@]5(C(=O)NS(=O)(=O)N(C)C)C[C@H]5/C=C\CCCCC[C@H](NC(=O)OC(C)(C)C)C(=O)N4C2)n3C(C)C)n1 [Compound 292]
Hepatitis C replicon; [1]
  EC50: < 0.01 µM
NS3/NS4 complexes
  IC50: < 0.01 µM

## CC(C)n1c(O[C@@H]2C[C@H]3C(=O)N[C@]4(C(=O)NS(=O)(=O)N(C)C)C[C@H]4/C=C\CCCCC[C@H](NC(=O)OC(C)(C)C)C(=O)N3C2)nc2c(-c3nc(C4CCCC4)cs3)cccc21 [Compound 293]
Hepatitis C replicon; [1]
  EC50: 0.01 to 0.1 µM
NS3/NS4 complexes
  IC50: < 0.01 µM

## CC(C)(C)OC(=O)N[C@H]1CCCCC/C=C\[C@@H]2C[C@@]2(C(=O)NS(=O)(=O)C2(C)CC2)NC(=O)[C@@H]2C[C@@H](Oc3ccc4c(c3)ncn4-c3ccccc3)CN2C1=O [Compound 294]
Hepatitis C replicon; [1]
  EC50: > 0.1 µM
NS3/NS4 complexes
  IC50: < 0.01 µM

## Cn1cnc2cc(O[C@@H]3C[C@H]4C(=O)N[C@]5(C(=O)NS(=O)(=O)C6(C)CC6)C[C@H]5/C=C\CCCCC[C@H](NC(=O)OC(C)(C)C)C(=O)N4C3)ccc21 [Compound 295]
Hepatitis C replicon; [1]
  EC50: > 0.1 µM
NS3/NS4 complexes
  IC50: < 0.01 µM

## Cn1cnc2ccc(O[C@@H]3C[C@H]4C(=O)N[C@]5(C(=O)NS(=O)(=O)C6(C)CC6)C[C@H]5/C=C\CCCCC[C@H](NC(=O)OC(C)(C)C)C(=O)N4C3)cc21 [Compound 296]
Hepatitis C replicon; [1]
  EC50: > 0.1 µM
NS3/NS4 complexes
  IC50: < 0.01 µM

## CC(C)n1cnc2cc(O[C@@H]3C[C@H]4C(=O)N[C@]5(C(=O)NS(=O)(=O)C6(C)CC6)C[C@H]5/C=C\CCCCC[C@H](NC(=O)OC(C)(C)C)C(=O)N4C3)ccc21 [Compound 297]
Hepatitis C replicon; [1]
  EC50: > 0.1 µM
NS3/NS4 complexes
  IC50: < 0.01 µM

## CCn1cnc2ccc(O[C@@H]3C[C@H]4C(=O)N[C@]5(C(=O)NS(=O)(=O)C6(C)CC6)C[C@H]5/C=C\CCCCC[C@H](NC(=O)OC(C)(C)C)C(=O)N4C3)cc21 [Compound 298]
Hepatitis C replicon; [1]
  EC50: > 0.1 µM
NS3/NS4 complexes
  IC50: < 0.01 µM

## CC(C)(C)OC(=O)N[C@H]1CCCCC/C=C\[C@@H]2C[C@@]2(C(=O)NS(=O)(=O)C2(C)CC2)NC(=O)[C@@H]2C[C@@H](Oc3ccc4ncn(-c5ccccc5)c4c3)CN2C1=O [Compound 299]
Hepatitis C replicon; [1]
  EC50: 0.01 to 0.1 µM
NS3/NS4 complexes
  IC50: < 0.01 µM

## CN(C)S(=O)(=O)NC(=O)[C@@]12C[C@H]1/C=C\CCCCC[C@H](NC(=O)OC(C)(C)C)C(=O)N1C[C@H](Oc3cnc4ccccc4n3)C[C@H]1C(=O)N2 [Compound 301]
Hepatitis C replicon; [1]
  EC50: 0.01 to 0.1 µM
NS3/NS4 complexes
  IC50: < 0.01 µM
